“And” between values parts separate entries of the source, which are not always exact repeats. Identical values can stand only once. Like-named read-outs stand apart in the source and are kept apart here.
Legend:
[1] = test system: apple scab (Venturia inaequalis); conditions: in vivo
[2] = test system: rust diseases of cereal crops; assay: Activity against rust diseases of cereal crops (general statements); type: in vivo
[3] = test system: stalk rust (Puccinia graminis f. tritici); type: in vivo
[4] = Acute peroral toxicity for warm-blooded animals (LD50, LD90); type: in vivo, white mice; conditions: mouse, in vivo, po
Experimental: (§1) Toxicity (LD50) was evaluated on males and females of white mice with peroral administration of the compounds. A portion of the test compound was mixed with the emulsifier Twin-20 and diluted with distilled water to the required working concentration. Administration of the preparation was effected by means of a metal probe and syringe directly into the stomach of test animals 2-3 hours after feeding. The tests were performed using several doses, 6 animals per each dose. Subsequent observation was effected for two weeks.

white mice = assay: as above; type: in vivo; conditions: Table 14; female mice, peroral
Experimental: as §1

[5] = test system: stalk rust of wheat (Puccinia graminis); type: in vivo; conditions: in vivo
[6] = test system: spores of Piricularia oryzae Cav.; type: cell-based
[7] = test system: potato phytophthora (Phytophthora infestans); type: in vivo; conditions: 1% aqueous emulsion; 18 °C, 14 days
[8] = test system: rust diseases of cereal crops; conditions: prior art; cited from earlier work
plants = conditions: prior art; cited from earlier work
yellow rust of wheat = conditions: in vivo
[9] = test system: stalk rust (Puccinia graminis f. tritici); type: in vivo; conditions: Table 8, 3.0 kg/ha, 3 sprayings
[10] = prior art; cited from earlier work
[11] = test system: yellow rust (P. striiformis); assay: Efficiency of Aphos for USVS against yellow rust of wheat under field conditions (Table 8); type: in vivo; conditions: Taskent region, spring wheat Kzyl Shark, 3.0 kg/ha, 7.5 l/ha (Zineb 600), 3 sprayings
[12] = seeds after storage of grains for one year
[13] = Krasnodar region, winter wheat Odesskaja-51, 7.5 l/ha (Zineb 3.2 kg/ha, 600 l/ha)
[14] = Moscow region, spring wheat Krasnozernaja, 7.5 l/ha (Zineb 600)

Compound: CC(=O)OC(C(Cl)(Cl)Cl)P(=O)(Oc1ccccc1)Oc1ccccc1 (centres unmarked) [I, O,O-diphenyl-1-acetoxy-2,2,2-trichloroethylphosphonate]
- protection of the apple tree from scab [1]: complete protection
- period of fungicidal effect as compared to zineb ([2]; compared to zineb): longer period of a fungicidal effect as compared to zineb
- protection of cereal crops from rust ([2]; even at a high level of infection): substantially completely protect cereal crops from rust
- increase of the grain yield ([2]; high-volume spraying and USVS at 5 to 8 l/ha): up to 24 c/ha
- efficiency compared with prior art anti-rust compositions ([2]; including zineb and hydroxycarboxine): superior over the prior art anti-rust fungicidal compositions including zineb and hydroxycarboxine
- Percentage of plants injured with rust, 1-st evaluation ([3]; in vivo): 0.5%
- Percentage of plants injured with rust, 2-nd evaluation ([3]; in vivo): 7.0%
- Weight of 1,000 grains ([3]; in vivo): 18.7 g
- Yield ([3]; in vivo): 17.40 c/ha
- effect on yield of wheat grain (wheat plants; even at 8-times the increase of the dose): does not lower the yield of wheat grain
- germination power (wheat plants; [12]): 99.5%
- sprouting energy (wheat plants; [12]): 98.5%
- LD50 at 336 h ([4]; Table 2, peroral, read-out: LD50 for white mice): 3500 mg/kg
- LD50 at 336 h ([4]; Table 14, female mice, peroral, read-out: LD50 with trusty limits): 3500 mg/kg
- LD50 at 336 h ([4]; white mice, peroral administration, read-out: acute toxicity): ~3500 mg/kg
- LD90 with trusty limits (white mice): 8,200 mg/kg
- Percentage of injury lowered [5]: 98-100% and 70-97%
- efficiency of suppressing spores relative to kitacin [6]: about 40 times
- superiority over kitacin in respect of activity [6]: about 50 times
- Concentration causing 50% death of spores ([6]; 24 hours): 0.69 mg/L

Compound: CN(C)C(=S)SSC(=S)N(C)C [TMTD, tetramethylthiuramdisulphide]
- sporulation on treated tubers [7]: individual conidia were observed

Compound: Nc1ccc(S(=O)(=O)O)cc1 [anilate]
- activity against rust diseases [8]: low-efficiency
- phytotoxicity (plants): phytotoxic

Compound: zinc ethylenebisdithiocarbamate [Zineb]
- reduced the degree of injury as compared to the control [1]: 97%
- efficiency under different agroclimatic conditions including frequent heavy rains ([2]; frequent heavy rains): low-effective
- Weight of 1,000 grains ([3]; 3 kg/ha a.i., three sprayings): 14.0 g
- Yield ([3]; 3 kg/ha a.i., three sprayings): 8.55 c/ha
- Percentage of plants injured with rust, 1-st evaluation ([3]; 3 kg/ha a.i., 9 days after the first spraying, Moscow region, spring wheat Krasnozernaja): 0.5%
- Percentage of plants injured with rust, 2-nd evaluation ([3]; 3 kg/ha a.i., two weeks after the third spraying, Moscow region, spring wheat Krasnozernaja): 12.0%
- Percentage of injured plants, 17.05 (yellow rust of wheat): 4% and 6% and 5%
- Weight of 1,000 grains (yellow rust of wheat): 35.4 g and 31.0 g and 34.8 g
- Yield (yellow rust of wheat): 411 and 351 and 412
- efficiency with longer intervals between sprayings (yellow rust of wheat): substantially reduced to zero
- activity against rust diseases [8]: high activity
- Grain yield [9, 13]: 34.5 c/ha
- Percentage of injured plants [9, 13]: 16.0%
- Weight of 1,000 grains [9, 13]: 35.6 g
- Grain yield [9, 14]: 8.0 c/ha
- Percentage of injured plants [9, 14]: 23.3%
- Weight of 1,000 grains [9, 14]: 12.6 g
- stability upon storage [10]: not stable upon storage
- Grain yield [11]: 20.8 c/ha
- Percentage of injured plants [11]: 14.4%
- Weight of 1,000 grains [11]: 31.6 g

Reference: patent publication US4212862A, “O,O-Diaryl-1-acyloxy-2,2,2-trichloroethylphosphonates and fungicides based thereon” (priority 1978, dated 1980)
